The values below come from ChEMBL document CHEMBL5143565, “Toll-like receptor 7 and 8 imidazoquinoline-based agonist/antagonist pairs” (Bioorg Med Chem Lett, 2022).

Molecules are shown by their SMILES. pEC50: −log10 of the molar value.

The target in one assay is T1, Toll-like receptor 7 (Homo sapiens, UniProt Q9NYK1).
T1 sequence (Q9NYK1 whole entry): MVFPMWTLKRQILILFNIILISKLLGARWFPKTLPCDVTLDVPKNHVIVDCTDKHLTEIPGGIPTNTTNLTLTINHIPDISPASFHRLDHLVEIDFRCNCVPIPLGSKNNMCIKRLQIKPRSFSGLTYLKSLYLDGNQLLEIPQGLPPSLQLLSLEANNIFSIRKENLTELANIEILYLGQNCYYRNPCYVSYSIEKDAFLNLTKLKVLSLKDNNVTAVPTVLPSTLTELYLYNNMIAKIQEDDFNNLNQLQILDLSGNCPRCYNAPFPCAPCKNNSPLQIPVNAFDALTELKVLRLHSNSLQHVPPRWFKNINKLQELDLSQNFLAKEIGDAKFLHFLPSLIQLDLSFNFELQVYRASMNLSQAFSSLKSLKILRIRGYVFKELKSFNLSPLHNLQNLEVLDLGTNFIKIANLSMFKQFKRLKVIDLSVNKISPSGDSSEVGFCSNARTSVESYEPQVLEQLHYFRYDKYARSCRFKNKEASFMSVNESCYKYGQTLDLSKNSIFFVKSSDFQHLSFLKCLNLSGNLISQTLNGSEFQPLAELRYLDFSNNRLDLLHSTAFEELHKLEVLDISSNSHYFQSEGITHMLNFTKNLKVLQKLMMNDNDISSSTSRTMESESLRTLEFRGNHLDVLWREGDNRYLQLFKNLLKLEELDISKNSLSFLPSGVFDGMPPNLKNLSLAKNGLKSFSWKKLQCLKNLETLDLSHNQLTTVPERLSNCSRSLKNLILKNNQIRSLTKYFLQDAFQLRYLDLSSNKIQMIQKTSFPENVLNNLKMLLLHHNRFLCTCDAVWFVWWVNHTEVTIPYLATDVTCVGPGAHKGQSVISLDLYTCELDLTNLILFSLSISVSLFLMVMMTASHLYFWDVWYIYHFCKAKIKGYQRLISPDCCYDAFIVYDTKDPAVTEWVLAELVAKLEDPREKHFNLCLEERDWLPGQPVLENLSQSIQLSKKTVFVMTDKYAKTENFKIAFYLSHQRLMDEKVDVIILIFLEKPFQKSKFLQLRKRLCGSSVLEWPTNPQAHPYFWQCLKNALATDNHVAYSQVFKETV
Put plainly: Agonist activity at TLR7 in human HEK-SEAP reporter cell assessed as NF-kappaB activation. It counts as cell-based.

Another assay has as its target T2, Toll-like receptor 8 (Homo sapiens, UniProt Q9NR97).
T2 sequence (Q9NR97 whole entry): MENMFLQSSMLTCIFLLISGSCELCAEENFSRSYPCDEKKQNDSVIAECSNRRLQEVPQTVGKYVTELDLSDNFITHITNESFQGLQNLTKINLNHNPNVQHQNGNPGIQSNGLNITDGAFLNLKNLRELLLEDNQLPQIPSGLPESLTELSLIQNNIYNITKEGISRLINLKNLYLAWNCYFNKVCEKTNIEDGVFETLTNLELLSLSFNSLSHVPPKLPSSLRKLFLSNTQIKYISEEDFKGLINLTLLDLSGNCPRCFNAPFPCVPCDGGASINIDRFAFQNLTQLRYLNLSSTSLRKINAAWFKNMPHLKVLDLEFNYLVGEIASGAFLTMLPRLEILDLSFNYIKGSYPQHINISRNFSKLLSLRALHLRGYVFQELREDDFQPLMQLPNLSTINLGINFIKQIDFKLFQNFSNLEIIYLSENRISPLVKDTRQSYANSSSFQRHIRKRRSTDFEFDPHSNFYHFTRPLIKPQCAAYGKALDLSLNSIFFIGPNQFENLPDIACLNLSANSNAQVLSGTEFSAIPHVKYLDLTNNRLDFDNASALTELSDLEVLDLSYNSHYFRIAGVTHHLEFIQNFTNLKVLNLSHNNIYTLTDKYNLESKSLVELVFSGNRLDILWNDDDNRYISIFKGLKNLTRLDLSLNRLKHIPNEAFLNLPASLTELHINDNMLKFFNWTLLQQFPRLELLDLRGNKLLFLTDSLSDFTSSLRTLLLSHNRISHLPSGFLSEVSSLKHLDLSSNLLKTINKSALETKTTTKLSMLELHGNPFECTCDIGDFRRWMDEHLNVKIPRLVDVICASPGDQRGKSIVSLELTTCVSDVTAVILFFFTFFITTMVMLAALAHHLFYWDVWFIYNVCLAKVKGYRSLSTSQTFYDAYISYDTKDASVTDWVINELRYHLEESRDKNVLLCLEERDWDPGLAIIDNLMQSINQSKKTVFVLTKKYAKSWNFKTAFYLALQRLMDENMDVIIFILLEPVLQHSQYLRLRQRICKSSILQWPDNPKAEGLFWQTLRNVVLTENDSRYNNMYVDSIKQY
Put plainly: Agonist activity at TLR8 in human HEK-SEAP reporter cell assessed as NF-kappaB activation. It counts as cell-based.

What is called pEC50 is the negative decadic logarithm of the EC50, by convention in mol/L. With `CC(C)Cc1nc2c(N)nc3ccccc3c2n1Cc1ccc(CN)cc1`, the negative-log EC50 (pEC50) on Toll-like receptor 7 is 6.68.

Regarding `COC(=O)c1ccc2c(c1)nc(N)c1nc(CC3CC3)n(CC(C)O)c12` (centres undefined), on Toll-like receptor 7, the pEC50 is 4.88.

In the case of `CC(O)Cn1c(CC2CC2)nc2c(N)nc3ccccc3c21` (centres undefined), on Toll-like receptor 7, the negative-log EC50 (pEC50) was 6.00.

In the case of `CC(C)Cc1nc2c(N)nc3ccccc3c2n1CC(C)O` (centres undefined), at Toll-like receptor 8, the negative logarithm of the EC50 (pEC50) was 4.57.
